27 compounds from patent US20250171459A1, “2-METHYL-4',5'-DIHYDROSPIRO[PIPERIDINE-4,7'-THIENO[2,3-C]PYRAN] DERIVATIVES AS INHIBITORS OF APOL1 AND METHODS OF USING SAME” (Vertex Pharmaceuticals Incorporated, priority 2022, published 2025) can be followed below.

This assay addresses T1, APOL1 (Homo sapiens, UniProt O14791).
T1 sequence (O14791 1-398 S342G/I384M): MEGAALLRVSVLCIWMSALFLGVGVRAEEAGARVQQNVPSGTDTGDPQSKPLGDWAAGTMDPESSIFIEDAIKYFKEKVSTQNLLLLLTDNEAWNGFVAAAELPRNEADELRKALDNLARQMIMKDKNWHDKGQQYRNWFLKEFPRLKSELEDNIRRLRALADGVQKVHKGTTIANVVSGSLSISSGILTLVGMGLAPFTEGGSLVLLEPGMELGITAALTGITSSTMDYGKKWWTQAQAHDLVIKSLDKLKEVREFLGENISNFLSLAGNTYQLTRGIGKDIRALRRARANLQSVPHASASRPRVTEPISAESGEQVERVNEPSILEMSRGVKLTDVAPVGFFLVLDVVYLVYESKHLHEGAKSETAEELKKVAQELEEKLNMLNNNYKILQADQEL
Kind of assay: MultiTox-Fluor Multiplex Cytotoxicity Assay in tet-inducible APOL1 T-REx-HEK293 cells (cell rescue, ratio of dead to live cells). It counts as cell-based. The note with it: tet-inducible transgenic APOL1 T-REx-HEK293 cell lines, 50 ng/mL tet, 24 hours; read-out: IP50 (i.e., IC50 for cell proliferation). An excerpt: The MultiTox-Fluor Multiplex Cytotoxicity Assay is a single-reagent-addition, homogeneous, fluorescence assay that measures the number of live and dead cells simultaneously in culture wells. The assay measures cell viability and cytotoxicity by detecting two distinct protease activities. […] The substrate enters intact cells, where it is cleaved to generate a fluorescent signal proportional to the number of living cells. […] A ratio of dead to live cells is used to normalize data.
The MultiTox reagent was added to each well and placed back in the incubator for an additional 30 minutes. The plate was read on the EnVision plate reader. A ratio of dead to live cells was used to normalize, and data was imported, analyzed, and fit using Genedata Screener (Basel, Switzerland) software. Data was normalized using percent of control, no tet (100% viability), and 50 ng/mL tet treated (0% viability), and fit using Smart Fit. The reagents, methods, and complete protocol for the MultiTox assay are described below.
Cells were washed with DPBS and then trypsinized to dissociate from the flask. Media was used to quench the trypsin, cells were then pelleted at 200 g and resuspended in fresh cell assay media (DMEM, 2% Tet-free FBS, 2 mM L-glutamine, 100 Units/mL penicillin-streptomycin). […] The plates were then incubated at room temperature for one hour.
Tetracycline is needed to induce APOL1 expression. 1 mg/mL tet stock in water was diluted to 250 ng/mL (5×) in cell assay media.
Compounds were dispensed at 200 nL in DMSO. The final top concentration was 10 μM with a 10 point 3-fold dilution in duplicate in the MultiTox assay.
20 μL was transferred from the 5× tet plate to the ARP and mixed, then 5 μL of 5× tet and the compounds were transferred to the cell plate and mixed using the Bravo. The cell plate was placed in the humidified 37° C. 5% CO2 incubator for 24 hours.
The MultiTox-Fluor Multiplex Cytotoxicity Assay was performed in accordance with the manufacturer's protocol. After cells were incubated with tet and compound for 24 hours, 25 μL of 1× MultiTox reagent was added to each well using the Multidrop dispenser; the plates were placed on a plate shaker (600 rpm) for 2 minutes, then centrifuged briefly and placed back in the 37° C. incubator for 30 minutes. The cell viability (excitation: 400 nm, emission: 486 nm) and cytotoxicity (excitation: 485 nm, emission: 535 nm) were read using the EnVision plate reader. A ratio of dead (cytotoxicity) to live (viability) cells was reported. Data was exported and analyzed in Genedata. Data was normalized using percent of control, no tet (100% viability), and 50 ng/mL tet treated (0% viability), and fit using Smart Fit settings in Genedata.
Take `CCc1cc2c(s1)CCO[C@@]21CCN(Cc2cn(Cc3cnc(C)cn3)nn2)[C@@H](C)C1` [Compound 32]: the IC50 was less than 100 nM. In the case of `CCc1cc2c(s1)CCO[C@@]21CCN(Cc2cn(CC3CCO3)nn2)[C@@H](C)C1` (stereo partly drawn) [Compound 33], the IC50 is less than 100 nM.

With `CCc1cc2c(s1)CCO[C@@]21CCN(Cc2cn(Cc3cnco3)nn2)[C@@H](C)C1` [Compound 34], the IC50 is less than 100 nM. As to `CCc1cc2c(s1)CCO[C@@]21CCN(Cc2cn(Cc3cocn3)nn2)[C@@H](C)C1` [Compound 35], the IC50 lay within 100 to 500 nM. As for `CCc1cc2c(s1)CCO[C@@]21CCN(Cc2cn(CCc3cn(C)cn3)nn2)[C@@H](C)C1` [Compound 36], the IC50 lay within 100 to 500 nM. The result for `CCc1cc2c(s1)CCO[C@@]21CCN(Cc2cn(CCC#N)nn2)[C@@H](C)C1` [Compound 37] reads less than 100 nM; that for `CCc1cc2c(s1)CCO[C@@]21CCN(Cc2cn(Cc3cnccn3)nn2)[C@@H](C)C1` [Compound 38], 100 to 500 nM. Take `CCc1cc2c(s1)CCO[C@@]21CCN(Cc2cn(Cc3c(CO)cnc(C)c3O)nn2)[C@@H](C)C1` [Compound 39]: the IC50 is 100 to 500 nM. On to `CCc1cc2c(s1)CCO[C@@]21CCN(Cc2cn(Cc3ncc(C)o3)nn2)[C@@H](C)C1` [Compound 40], for which the IC50 lay in the range of 100 to 500 nM. Regarding `CCc1cc2c(s1)CCO[C@@]21CCN(Cc2cn(Cc3ccnnc3)nn2)[C@@H](C)C1` [Compound 41], the IC50 was less than 100 nM. For `CCc1cc2c(s1)CCO[C@@]21CCN(Cc2cn(CCNC(=O)c3ccncc3)nn2)[C@@H](C)C1` [Compound 42] the value was less than 100 nM; for `CCc1cc2c(s1)CCO[C@@]21CCN(Cc2cn(CCc3cnccn3)nn2)[C@@H](C)C1` [Compound 43], 100 to 500 nM; for `CCc1cc2c(s1)CCO[C@@]21CCN(Cc2cn(Cc3cnn(C)c3C)nn2)[C@@H](C)C1` [Compound 44], less than 100 nM.

Regarding `CCc1cc2c(s1)CCO[C@@]21CCN(Cc2cn(Cc3cnoc3)nn2)[C@@H](C)C1` [Compound 45], the IC50 is less than 100 nM.

With `CCc1cc2c(s1)CCO[C@@]21CCN(Cc2cn(CCn3cccn3)nn2)[C@@H](C)C1` [Compound 46], the IC50 lay within 100 to 500 nM.

For the compound `CCc1cc2c(s1)CCO[C@@]21CCN(Cc2cn(CCc3c[nH]cn3)nn2)[C@@H](C)C1` [Compound 48], the IC50 was less than 100 nM. For the compound `CCc1cc2c(s1)CCO[C@@]21CCN(Cc2cn(Cc3cnn(C)c3)nn2)[C@@H](C)C1` [Compound 49], the IC50 is less than 100 nM. For `CCc1cc2c(s1)CCO[C@@]21CCN(Cc2cn(CCNC(=O)c3cnc(C)cn3)nn2)[C@@H](C)C1` [Compound 50] the value was less than 100 nM; for `CCc1cc2c(s1)CCO[C@@]21CCN(Cc2cn(Cc3ncccn3)nn2)[C@@H](C)C1` [Compound 51], 100 to 500 nM. Turning to `CCc1cc2c(s1)CCO[C@@]21CCN(Cc2cn(Cc3nnc4n3CCCC4)nn2)[C@@H](C)C1` [Compound 52], the IC50 was less than 100 nM.

As to `CCc1cc2c(s1)CCO[C@@]21CCN(Cc2cn(Cc3nc(C)cc(C)n3)nn2)[C@@H](C)C1` [Compound 53], the IC50 lay within 500 to 1000 nM. On to `CCc1cc2c(s1)CCO[C@@]21CCN(Cc2cn(Cc3cn(C)nc3C)nn2)[C@@H](C)C1` [Compound 54], for which the IC50 was less than 100 nM. For `CCc1cc2c(s1)CCO[C@@]21CCN(Cc2cn(Cc3ccncn3)nn2)[C@@H](C)C1` [Compound 55] the value was 100 to 500 nM. For `CCc1cc2c(s1)CCO[C@@]21CCN(Cc2cn(Cc3nccn3C)nn2)[C@@H](C)C1` [Compound 56] the value was less than 100 nM; for `CCc1cc2c(s1)CCO[C@@]21CCN(Cc2cn(Cc3c[nH]nc3C)nn2)[C@@H](C)C1` [Compound 57], less than 100 nM. For `CCc1cc2c(s1)CCO[C@@]21CCN(Cc2cn(CC(C)n3cncn3)nn2)[C@@H](C)C1` (stereo partly drawn) [Compound 58] the value was 100 to 500 nM. `CCc1cc2c(s1)CCO[C@@]21CCN(Cc2cn(CC(=O)NC3CC3)nn2)[C@@H](C)C1` [Compound 59]: the IC50 was less than 100 nM.
